# Measurements published in publication PMC11089505, “Structural Elucidation and Antiviral Activity of Covalent Cathepsin L Inhibitors” (Journal of Medicinal Chemistry, 2024).
# “And” between values parts separate entries of the source, which are not always exact repeats. Identical values can stand only once.
# What was measured:
# [1] = tested on: SARS-CoV-2-GFP in Vero E6 cells; assay: microbe, parasite or virus in culture; type: cell-based; conditions: Severe acute respiratory syndrome coronavirus 2, Vero C1008, 48 h, read-out: EC50 (48 h)
# CatL [2] = biological target: T1, CatL (Homo sapiens, UniProt P07711, T223A); assay: CatL inactivation assay comparing epoxides at pH 6 and pH 4; type: biochemical
# T1 construct: made in house; host or cells: Komagataella pastoris strain GS115
# Protocol: Experiments were performed in a solution of 50 mM sodium acetate, pH 4.0, 50 mM NaCl, 0.1% PEG 6000, and 5 mM DTT. Distinct assays with epoxide inhibitors at pH 6.0 were performed in 50 mM sodium phosphate buffer, 50 mM NaCl, 5 mM DTT, 0.1% PEG 6000, adjusted to pH 6.0.
# M1000 pro plate reader (Tecan), the fluorescent peptide substrate Z-RR-AMC, and excitation and emission wavelengths of 370 and 460 nm, respectively.
# At first, the inhibitor concentration span was optimized for each inhibitor and the assay buffer. For this initial screening, CatL (5 nM) was mixed with different concentrations of inhibitors (1 nM–50 μM) to determine the range of their inhibition. […] Reaction data were fitted to the […] in GraphPad Prism 9 software: Y = bottom + (top – bottom)/(1 + 10^∧((log IC50 – X) × HillSlope)); X is the log of dose or concentration, Y is the response (fluorescence signal), decreasing as X increases, top and bottom are the plateaus in the same units as Y, log IC50 same log units as X, HillSlope is the slope factor or called the Hill slope.
# Figure S7. Inactivation of CatL.
# (1 picture or pasted object on this page, not shown here)
# CatL [3] = biological target: T1, CatL; assay: NanoDSF, thermal stability of CatL; type: binding
# SARS-CoV-2 Mpro = SARS-CoV-2 Mpro (Severe acute respiratory syndrome coronavirus 2, UniProt P0DTD1); type: binding; conditions: 2:1 compound to protein
# cathepsin L = biological target: T2, cathepsin L (Homo sapiens, UniProt P07711, T223A); assay: MALDI-TOF analysis of covalent CatL-inhibitor complex; type: binding; conditions: 37 °C
# T2 construct: made in house; host or cells: Komagataella pastoris strain GS115
# Protocol: Experiments were performed in two different buffers, one at pH 4.0 (100 mM sodium acetate, pH 4.0, 50 mM NaCl, 5 mM DTT) and the other at pH 6.0 (100 mM sodium phosphate, pH 6.0, 50 mM NaCl, 5 mM DTT).
# Mass spectrometry was performed on an UltrafleXtreme III MALDI-TOF/TOF mass spectrometer (Bruker, Billerica, MA). Samples were prepared on a standard steel target as described by Wenzel et al.[71] The spectra were acquired in a linear mode with a mass range of 20–50 kDa. […] The spectra were externally calibrated with aldolase and BSA standards (Sigma-Aldrich). Acquisition, processing, and calibration were performed using FlexControl 3.0 and FlexAnalysis software (Bruker).
# (B) Two-dimensional interaction plot based on chain A according to Dis-
# Figure S6. […] Activated matured cathepsin L (3 µM)
# Molar ratio 1:10 pH = 4.0
# Molar ratio 1:10 pH = 6.0 […]
# [4] = Cell viability assay (CellTiter-Blue); conditions: African green monkey
# T1 sequence (P07711 114-333 T223A): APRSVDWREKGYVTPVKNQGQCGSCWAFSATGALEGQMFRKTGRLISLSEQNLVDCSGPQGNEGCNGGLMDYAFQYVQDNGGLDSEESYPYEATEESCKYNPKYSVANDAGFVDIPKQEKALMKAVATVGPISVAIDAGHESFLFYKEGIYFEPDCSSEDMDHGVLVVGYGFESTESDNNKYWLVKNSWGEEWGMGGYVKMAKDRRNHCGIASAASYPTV
# T2 sequence (P07711 114-333 T223A): as above
smiles,measurement,setting,value
"O=C(NCc1ccccc1)[C@H](Cc1ccccc1)NC(=O)[C@H]1O[C@@H]1C(=O)NCCc1ccc(O)cc1 [CAA0225, (2S.3S)-2-N-[(1S)-1-(Benzylcarbamoyl)-2-phenylethyl]-3-N-[2-(4-hydroxyphenyl)ethyl]oxirane-2.3-dicarboxamide]",EC50,[1],< 500 nM
same,Inactivation Rate,"CatL [2]; CAA0225, pH 4, 4.39 nM",0.0001763 per second
same,Inactivation Rate,"CatL [2]; CAA0225, pH 4, 5.85 nM",0.0002627 per second
same,Inactivation Rate,"CatL [2]; CAA0225, pH 4, 6.59 nM",0.0001334 per second
same,Inactivation Rate,"CatL [2]; CAA0225, pH 4, 8.78 nM",0.0003675 per second and 0.0002752 per second
same,Inactivation Rate,"CatL [2]; CAA0225, pH 4, 9.88 nM",0.0001166 per second
same,Inactivation Rate,"CatL [2]; CAA0225, pH 4, 13.17 nM",0.0002828 per second and 0.0003022 per second
same,Inactivation Rate,"CatL [2]; CAA0225, pH 4, 14.82 nM",0.0003059 per second
same,Inactivation Rate,"CatL [2]; CAA0225, pH 4, 19.75 nM",0.0002683 per second and 0.0004006 per second
same,Inactivation Rate,"CatL [2]; CAA0225, pH 4, 22.22 nM",0.0004569 per second
same,Inactivation Rate,"CatL [2]; CAA0225, pH 4, 29.63 nM",0.0004182 per second and 0.0006192 per second
same,Inactivation Rate,"CatL [2]; CAA0225, pH 4, 33.34 nM",0.0007535 per second
same,Inactivation Rate,"CatL [2]; CAA0225, pH 4, 44.44 nM",0.0007461 per second and 0.001023 per second
same,Inactivation Rate,"CatL [2]; CAA0225, pH 4, 50.00 nM",0.001182 per second
same,Inactivation Rate,"CatL [2]; CAA0225, pH 4, 66.67 nM",0.001354 per second and 0.001764 per second
same,Inactivation Rate,"CatL [2]; CAA0225, pH 4, 100.00 nM",0.001979 per second
same,Inactivation Rate,"CatL [2]; CAA0225, pH 6, 4.39 nM",0.0002723 per second
same,Inactivation Rate,"CatL [2]; CAA0225, pH 6, 5.85 nM",0.0006424 per second and 0.0005666 per second
same,Inactivation Rate,"CatL [2]; CAA0225, pH 6, 6.59 nM",0.0004593 per second
same,Inactivation Rate,"CatL [2]; CAA0225, pH 6, 8.78 nM",0.001025 per second and 0.001163 per second
same,Inactivation Rate,"CatL [2]; CAA0225, pH 6, 9.88 nM",0.0009595 per second
same,Inactivation Rate,"CatL [2]; CAA0225, pH 6, 13.17 nM",0.001923 per second and 0.002013 per second
same,Inactivation Rate,"CatL [2]; CAA0225, pH 6, 14.82 nM",0.001982 per second
same,Inactivation Rate,"CatL [2]; CAA0225, pH 6, 19.75 nM",0.00308 per second and 0.003226 per second
same,Inactivation Rate,"CatL [2]; CAA0225, pH 6, 22.22 nM",0.003696 per second
same,Inactivation Rate,"CatL [2]; CAA0225, pH 6, 29.63 nM",0.00521 per second and 0.005796 per second
same,Inactivation Rate,"CatL [2]; CAA0225, pH 6, 33.34 nM",0.006322 per second
same,Inactivation Rate,"CatL [2]; CAA0225, pH 6, 44.44 nM",0.007455 per second and 0.01045 per second
same,Inactivation Rate,"CatL [2]; CAA0225, pH 6, 50.00 nM",0.009878 per second
same,Inactivation Rate,"CatL [2]; CAA0225, pH 6, 66.66 nM",0.01058 per second and 0.01915 per second
same,"2:1, Tm average (CatL)",CatL [3]; 2:1 compound to protein,70 °C
same,"20:1, Tm average (CatL)",CatL [3]; 20:1 compound to protein,78.5 °C
same,"2:1, Tm average (Mpro)",SARS-CoV-2 Mpro,53.3 °C
same,Mass change of cathepsin L main peak with vs without inhibitor,"cathepsin L; pH 4.0, molar ratio 1:10, 15 min",477.7 Da
same,Mass change of cathepsin L main peak with vs without inhibitor,"cathepsin L; pH 6.0, molar ratio 1:10, 15 min",493.8 Da
same,"viability at 48 h, 1e-05 µM",[4],103%
same,"viability at 48 h, 0.0001 µM",[4],103%
same,"viability at 48 h, 0.001 µM",[4],101%
same,"viability at 48 h, 0.01 µM",[4],104%
same,"viability at 48 h, 0.1 µM",[4],100%
same,"viability at 48 h, 1 µM",[4],105%
same,"viability at 48 h, 10 µM",[4],105%
